Test results from publication PMC6874683, “Pyrrothiogatain acts as an inhibitor of GATA family proteins and inhibits Th2 cell differentiation in vitro” (Scientific Reports, 2019).

What was measured:
[1] = tested on: GATA3-dependent IL-5 promoter activation; assay: IL-5 promoter luciferase reporter assay in HEK293T cells; type: cell-based; details: PMA 30 ng/mL, 0 to 30 µM
Protocol: The IL-5 promoter activity was determined as previously described[22],[23]. In brief, HEK293T cells were co-transfected with a firefly luciferase reporter (pGL3-IL-5 promoter), a renilla luciferase plasmid, and an expression vector (pcDNA3.1) using TransIT-LTI Regent (Cat#MIR2304, Mirus). Six hours after transfection, cells were treated with pyrrothiogatain (0 to 30 µM) and PMA (30 ng/mL) for 18 hours. The luciferase activity was measured using a Dual-Luciferase Reporter Assay System (cat#E1910, Promega).

[2] = tested on: Th2 cell differentiation; assay: Intracellular cytokine staining, naive CD4+ T cells under Th2 conditions; type: cell-based, mouse; details: 30 and 80 µM, 5 days
Protocol: (§1) C57BL/6 mice were purchased from Clea (Clea Japan, Inc., Tokyo, Japan). Total CD4^+ T cells isolated from mouse spleen were prepared using a FITC anti-mouse CD4 antibody (Cat#100510, RM4–5, BioLegend) and anti-FITC-microbeads (Cat#130-097-050, Miltenyi Biotec). Naive CD4^+ T cells (CD44^low, CD62L^high) were prepared using a MojoSort Mouse CD4 T cell Isolation Kit (Cat#480033), BioLegend). Biotinylated anti-CD44 (Cat#103004, IM7) and anti-CD25 antibodies (Cat#102004, PC61) were purchased from BioLegend. CD4^+ T cells (7.5 × 10^5) were stimulated using immobilized anti-TCR-β mAb (3 µg/mL, H57–597, BioLegend) plus an anti-CD28 mAb (1.0 µg/mL, cat#40–0281, TONBO Biosciences) for 2 days, and then, the cells were further expanded under similar conditions for an additional 3 days. IL-2 conditions: IL-2 (10 ng/mL, Pepro Tech); Th2 conditions: IL-2 (10 ng/mL, Pepro Tech), IL-4 (1 ng/mL, Pepro Tech), and anti-IFN-γ mAb (2.5 µg/mL, cat#40–731, TONBO Biosciences). […]
(§2) The in vitro differentiated CD4^+ T cells were stimulated using an immobilized anti-TCR-β mAb (3 µg/ml, H57–597, BioLegend) for 6 h in the presence of monensin (2 µM). […] Flow cytometry was performed using a Gallios Flow Cytometer instrument (Beckman Coulter) and a FACS Caliber instrument (BD Biosciences) and the results were analysed using the FlowJo software program (Tree Star, Ashland, OR, USA).

[3] = target: T1, GATA3 (Homo sapiens, UniProt P23771); assay: Electrophoretic mobility shift assay (EMSA), GATA3; type: binding; details: 50 to 100 µM
T1 construct: we synthesized the recombinant full-length GATA3 protein with an N-terminal FLAG tag using the wheat cell-free system; made in house; host or cells: wheat cell-free protein synthesis system (WEPRO1240 kit)
Protocol: Electrophoretic mobility shift assays were performed as described previously. In brief, four GATA family proteins (GATA2 to GATA5) were incubated with a ^32P-labelled GATA-binding DNA probe for 20 min at 4 °C in the presence or absence of pyrrothiogatain (0 to 100 µM). The DNA-protein complex was separated from free oligonucleotides on 4% polyacrylamide gels, and then, the ^32P-labelled DNA probes were detected using the Typhoon FLA 7000 (GE Healthcare).

[4] = tested on: Th1 cell differentiation; assay: Th1 cell differentiation, naive CD4+ T cells under Th1 conditions; type: cell-based, mouse; details: 80 µM, five days
Protocol: as §1, with “days.” for “days. IL-2 conditions: IL-2 (10 ng/mL, Pepro Tech); Th2 conditions: IL-2 (10 ng/mL, Pepro Tech), IL-4 (1 ng/mL, Pepro Tech), and anti-IFN-γ mAb (2.5 µg/mL, cat#40–731, TONBO Biosciences).”
as §2, with “USA). […]” for “USA).”
(B) Cytokine production induced in the pyrrothiogatain-treated Th1 cells shown in panel (A) was determined by ELISA.

T1 sequence (P23771 whole entry, species assumed): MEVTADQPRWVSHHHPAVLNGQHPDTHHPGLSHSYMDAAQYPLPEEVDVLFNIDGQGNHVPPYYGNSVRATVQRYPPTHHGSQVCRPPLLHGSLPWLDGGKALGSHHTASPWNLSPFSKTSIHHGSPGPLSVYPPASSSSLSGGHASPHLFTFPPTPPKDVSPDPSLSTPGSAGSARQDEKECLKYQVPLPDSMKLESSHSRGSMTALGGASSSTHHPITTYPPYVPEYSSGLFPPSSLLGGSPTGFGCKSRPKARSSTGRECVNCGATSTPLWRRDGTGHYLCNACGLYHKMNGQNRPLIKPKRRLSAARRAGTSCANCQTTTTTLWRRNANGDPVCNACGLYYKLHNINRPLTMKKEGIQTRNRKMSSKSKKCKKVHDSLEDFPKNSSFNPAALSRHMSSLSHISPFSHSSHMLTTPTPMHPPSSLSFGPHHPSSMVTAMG

Cc1ccc(C)n1-c1ccsc1C(=O)O [Pyrrothiogatain, 3-(2,5-dimethyl-1H-pyrrol-1-yl)thiophene-2-carboxylic acid]
GATA3-dependent transcriptional activation of the IL-5 promoter [1]: significantly suppressed | Generation of IL-4-, IL-5-, and IL-13-producing Th2 cells [2]: repressed | Intensity of the shifted bands generated by GATA3-DNA binding [3]: decreased | Generation of IFN-γ and IL-2 producing Th1 cells [4]: modestly increased
